Measurements reported in article PMC3119659, “Ligand Activation of the Prokaryotic Pentameric Ligand-Gated Ion Channel ELIC” (PLoS Biology, 2011).
Where two headings read alike, the source gives them in different places.

Experiments:
Format in all cases: cell-based, Erwinia chrysanthemi
ELIC = target: T1, ELIC (Dickeya chrysanthemi, UniProt P0C7B7); test: cell-based; details: for n (Hill coefficient) / EC50: WT; for EC50: read-out: EC50 of activation of ELIC
T1 construct: expressed in transfected cells; host or cells: Xenopus laevis oocytes (cRNA injection, pTLN vector)
T1 sequence (P0C7B7 whole entry): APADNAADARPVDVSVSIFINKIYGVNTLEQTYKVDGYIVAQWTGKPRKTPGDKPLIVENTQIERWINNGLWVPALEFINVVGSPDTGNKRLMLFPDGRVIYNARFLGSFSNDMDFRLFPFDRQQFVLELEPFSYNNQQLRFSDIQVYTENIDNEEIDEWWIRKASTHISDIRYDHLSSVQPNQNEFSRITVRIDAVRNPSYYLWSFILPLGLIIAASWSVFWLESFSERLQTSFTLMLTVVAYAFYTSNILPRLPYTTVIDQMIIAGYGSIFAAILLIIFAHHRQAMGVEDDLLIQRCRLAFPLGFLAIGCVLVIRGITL
From the text: To identify ligands that activate ELIC we have expressed the protein in Xenopus laevis oocytes and investigated the response to potential agonists by the two-electrode voltage-clamp technique. Based on the volume and chemical properties of the proposed ligand binding region and the presence of positively charged ions bound to this site, we reasoned that parts of the agonists might have a cationic character. […] Our library included different natural products such as amino acids and their derivatives, metabolites, and related synthetic substances (Figure S3A).
Constructs containing the gene of either the WT channel or point mutants preceded by the signal sequence of the chicken α7nAchR were cloned into the pTLN vector for expression in X. laevis oocytes. After linearization of the plasmid DNA by MluI, capped complementary RNA was transcribed with the mMessage mMachine kit (Ambion) and purified with the RNeasy kit (Qiagen). For expression, 1–50 ng of RNA was injected into defolliculated oocytes. Two-electrode voltage clamp measurements were performed one day after injection at 20°C (OC-725B, Warner Instrument Corp.). […] Cysteamine containing solutions were supplemented with 1 mM DTT.

ELIC R91A = target: T2, ELIC R91A (Dickeya chrysanthemi, UniProt P0C7B7, R91A); test: Two-electrode voltage clamp of ELIC point mutant R91A in oocytes
T2 construct: expressed in transfected cells; host or cells: Xenopus laevis oocytes (cRNA injection, pTLN vector)
T2 sequence (P0C7B7 whole entry R91A): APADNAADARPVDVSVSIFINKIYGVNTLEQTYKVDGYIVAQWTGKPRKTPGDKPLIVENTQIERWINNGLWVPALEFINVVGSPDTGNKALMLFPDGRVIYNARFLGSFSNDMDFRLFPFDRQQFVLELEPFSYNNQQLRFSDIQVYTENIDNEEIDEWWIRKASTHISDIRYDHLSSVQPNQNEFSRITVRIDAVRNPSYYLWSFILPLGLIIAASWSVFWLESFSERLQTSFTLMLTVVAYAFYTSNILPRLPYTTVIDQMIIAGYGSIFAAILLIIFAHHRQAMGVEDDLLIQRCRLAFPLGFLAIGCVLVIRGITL
From the text: (§1) To investigate the role of residues surrounding the bound ligand for channel activation, we have mutated single residues to alanine and we have measured activation with the two-electrode voltage-clamp technique (Table 2). For many mutants there was no response to the addition of cysteamine. This was the case for all investigated residues of the principal site, such as Glu77 and Glu131, that may interact with the primary amino group and hydrophobic and aromatic residues (i.e., Phe187, Phe133, Tyr174, Ile79) that surround the aliphatic carbon atoms of the ligand. The effect of mutations on the complementary side, in contrast, was diverse and in some cases less drastic. The mutations of Phe19 on β-1 and Val40 on β-2 shifted the activation towards higher agonist concentrations (Figure 4B).
(§2) Constructs containing the gene of either the WT channel or point mutants preceded by the signal sequence of the chicken α7nAchR were cloned into the pTLN vector for expression in X. laevis oocytes. After linearization of the plasmid DNA by MluI, capped complementary RNA was transcribed with the mMessage mMachine kit (Ambion) and purified with the RNeasy kit (Qiagen). For expression, 1–50 ng of RNA was injected into defolliculated oocytes. Two-electrode voltage clamp measurements were performed one day after injection at 20°C (OC-725B, Warner Instrument Corp.). Currents were recorded in bath solutions containing 10 mM HEPES (pH 7), 130 mM NaCl, and the respective ligands. Cysteamine containing solutions were supplemented with 1 mM DTT.

ELIC V40A = target: T3, ELIC V40A (Dickeya chrysanthemi, UniProt P0C7B7, V40A); test: Two-electrode voltage clamp of ELIC point mutant V40A in oocytes; details: read-out: EC50 of activation
T3 construct: expressed in transfected cells; host or cells: Xenopus laevis oocytes (cRNA injection, pTLN vector)
T3 sequence (P0C7B7 whole entry V40A): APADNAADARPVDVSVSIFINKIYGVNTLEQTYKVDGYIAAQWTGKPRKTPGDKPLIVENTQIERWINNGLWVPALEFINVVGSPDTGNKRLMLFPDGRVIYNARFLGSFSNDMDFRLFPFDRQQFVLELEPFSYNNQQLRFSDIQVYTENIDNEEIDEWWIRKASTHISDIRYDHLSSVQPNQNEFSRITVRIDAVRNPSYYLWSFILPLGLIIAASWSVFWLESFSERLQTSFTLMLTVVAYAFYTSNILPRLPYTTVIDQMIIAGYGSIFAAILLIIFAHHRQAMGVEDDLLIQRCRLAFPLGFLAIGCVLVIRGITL
From the text: as §1, §2

[1] = pH 7.0, two-electrode voltage clamp, -60 mV, fit to Hill equation
[2] = ligand added to the extracellular solution, 10 mM, -60 mV, compared with 2 mM cysteamine
[3] = pH 7.0, averages and s.d. of six measurements

| Compound | n (Hill coefficient) (ELIC; pH 7.0) | EC50 (ELIC; [1]) | activating current response of ELIC to the ligand (ELIC; [2]) | Imax/Imax cysteamine (ELIC; [3]) | also measured |
| --- | --- | --- | --- | --- | --- |
| NCCC(=O)O [beta-alanine] | – | – | – | – | activating current response of ELIC to the ligand (ELIC): absent |
| NCCCBr [bromopropylamine] | 3.9 | 1.1 mM | opening the channel | 0.71±0.03 | – |
| CCCCN [butylamine] | – | – | weak | – | – |
| aminopropanol | 3.2 | 1.2 mM | strong activation | 1.00±0.014 | n (Hill coefficient) (ELIC R91A; mutant R91A): 2.45; fold decrease of the EC50 (ELIC R91A; mutant R91A compared with WT): 2 fold; EC50 (ELIC R91A; mutant R91A, read-out: EC50 of activation): 511 µM; EC50 (ELIC V40A): > 10 mM |
| NCCN | – | – | activate ELIC | – | n (Hill coefficient) (ELIC; pH 8.0): 3.2; EC50 (ELIC; pH 8.0, two-electrode voltage clamp, -60 mV): 2 mM; activating current response of ELIC to the ligand (ELIC; ligand added to the extracellular solution, 10 mM, -60 mV, compared with 2 mM cysteamine, listed as aminoethane): already active at neutral conditions; Imax/Imax cysteamine (ELIC; pH 9.0, averages and s.d. of six measurements): 1.07±0.06 |
| CCCN [aminopropane] | 3.0 | 0.446 mM | activate the channel | 0.99±0.02 | – |
| NCCCCO | 2.9 | 1.7 mM | strong activation | 0.98±0.03 | – |
| CC(C)N [isopropylamine] | – | – | weak | – | – |
| NCC(=O)O [glycine] | – | – | – | – | activating current response of ELIC to the ligand (ELIC): absent |
